The values below come from patent US20230071840A1, “HETEROCYCLIC GLP-1 AGONISTS” (Gasherbrum Bio, Inc., priority 2020, published 2023).

Like-named read-outs stand apart in the source and are kept apart here.

This test deals with GLP-1 Receptor (Homo sapiens, UniProt P43220). The test is described as follows: GLP-1R agonist cAMP stimulation assay (HEK293/GLP1R/CRE-LUC cells, cAMP dynamic 2 kit). To be noted: HEK293/CRE-Luc cell line stably expressing the GLP-1 Receptor, 30 min incubation at 37° C. Type of test: cell-based. The protocol: Activation of GLP-1 receptor is known to stimulate cyclic AMP (cAMP) production in cells which indicates primary coupling to the Gas subunit of the G protein heterotrimeric complex.
To optimize functional activity directed toward Gas coupling, a HEK293/CRE-Luc cell line developed by HDB stably expressing the GLP-1 Receptor was used. […] Seal the plate and incubate at 37° C. with 5% CO2 for 30 min.
After incubation the cAMP assay signal was generated using cAMP dynamic 2 Kit (Cisbio). 5 μL cAMP-d2 working solution was added to each well, followed with 5 μL Anti-cAMP antibody-cryptate working solution added to each well using ThermoFisher Multidrop Combi. Incubate at room temperature for 1 hour protected from light.
% Activity=[…]×(mean RLU of test sample−mean RLU of vehicle control)/(mean RLU of MAX control−mean RLU of vehicle control))

The mark [1] stands for this setting: read-out: GLP1R cAMP Stimulation DR: EC50.
Where [2] appears, read: read-out: GLP1R cAMP Stimulation DR: pEC50 (converted).

GLP-1 Receptor, sequence (P43220 24-463, species assumed): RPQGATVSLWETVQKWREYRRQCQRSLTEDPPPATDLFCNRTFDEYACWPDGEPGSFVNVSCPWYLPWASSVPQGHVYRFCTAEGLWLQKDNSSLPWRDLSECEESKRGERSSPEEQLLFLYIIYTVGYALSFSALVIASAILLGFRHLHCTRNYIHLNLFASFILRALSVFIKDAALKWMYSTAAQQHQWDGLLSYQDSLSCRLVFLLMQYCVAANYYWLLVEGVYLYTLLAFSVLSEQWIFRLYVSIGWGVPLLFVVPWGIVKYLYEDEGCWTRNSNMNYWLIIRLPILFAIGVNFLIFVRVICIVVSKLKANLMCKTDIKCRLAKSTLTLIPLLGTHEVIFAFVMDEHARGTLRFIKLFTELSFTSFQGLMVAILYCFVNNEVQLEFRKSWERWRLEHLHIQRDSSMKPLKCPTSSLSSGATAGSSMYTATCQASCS

In the case of `O=C(O)c1ccc2nc(CN3CCC(Oc4cccc(Cc5ccc(Cl)cc5)c4F)CC3)n(C[C@@H]3CCO3)c2n1` [Compound 157a, 2-[(4-{3-[(4-chlorophenyl)methyl]-2-fluorophenoxy}piperidin-1-yl)methyl]-3-{[(2S)-oxetan-2-yl]methyl}-3H-imidazo[4,5-b]pyridine-5-carboxylic acid], the EC50 under setting [1] was 42 nM. The same measure, in the same setting: the same measure for `O=C(O)c1ccc2nc(CN3CCC(Oc4cccc(Cc5ccc(Cl)cc5)c4Cl)CC3)n(C[C@@H]3CCO3)c2n1` [Compound 158a, 2-[(4-{2-chloro-3-[(4-chlorophenyl)methyl]phenoxy}piperidin-1-yl)methyl]-3-{[(2S)-oxetan-2-yl]methyl}-3H-imidazo[4,5-b]pyridine-5-carboxylic acid]: above 1000 nM; for `O=C(O)c1ccc2nc(CN3CCC(Oc4ccnc(Cc5ccc(Cl)cc5)c4)CC3)n(C[C@@H]3CCO3)c2n1` [Compound 159a, 2-{[4-({2-[(4-chlorophenyl)methyl]pyridin-4-yl}oxy)piperidin-1-yl]methyl}-3-{[(2S)-oxetan-2-yl]methyl}-3H-imidazo[4,5-b]pyridine-5-carboxylic acid]: 2.3 nM; for `O=C(O)c1ccc2nc(CN3CCC(Oc4ccnc(Cc5ccc(Cl)cc5F)n4)CC3)n(C[C@@H]3CCO3)c2c1` [Compound 160a, 2-{[4-({2-[(4-chloro-2-fluorophenyl)methyl]pyrimidin-4-yl}oxy)piperidin-1-yl]methyl}-1-{[(2S)-oxetan-2-yl]methyl}-1H-1,3-benzodiazole-6-carboxylic acid]: 0.12 nM.

As to `O=C(O)c1cnc2nc(CN3CCC(Oc4ccnc(Cc5ccc(Cl)cc5F)n4)CC3)n(C[C@@H]3CCO3)c2c1` [Compound 161a, 2-{[4-({2-[(4-chloro-2-fluorophenyl)methyl]pyrimidin-4-yl}oxy)piperidin-1-yl]methyl}-1-{[(2S)-oxetan-2-yl]methyl}-1H-imidazo[4,5-b]pyridine-6-carboxylic acid], the EC50 under setting [1] came to 0.18 nM. On the same count and under the same terms, the same measure for `N#CC1(Cn2c(CN3CCC(Oc4ccnc(Cc5ccc(Cl)cc5F)n4)CC3)nc3ccc(C(=O)O)cc32)CC1` [Compound 162, 2-{[4-({2-[(4-chloro-2-fluorophenyl)methyl]pyrimidin-4-yl}oxy)piperidin-1-yl]methyl}-1-[(1-cyanocyclopropyl)methyl]-1H-1,3-benzodiazole-6-carboxylic acid]: 0.075 nM. Regarding `O=C(O)c1ccc2nc(CN3CCC(Oc4ccnc(Cc5ccc(C(F)(F)F)cc5F)n4)CC3)n(C[C@@H]3CCO3)c2n1` [Compound 163a, 2-({4-[(2-{[2-fluoro-4-(trifluoromethyl)phenyl]methyl}pyrimidin-4-yl)oxy]piperidin-1-yl}methyl)-3-{[(2S)-oxetan-2-yl]methyl}-3H-imidazo[4,5-b]pyridine-5-carboxylic acid], the EC50 runs as follows: under setting [1], 0.11 nM; under setting [2], 0.1 nM. On to `O=C(O)c1ccc2nc(CN3CCC(Oc4ccnc(Cc5ccc(Cl)cc5Cl)n4)CC3)n(C[C@@H]3CCO3)c2n1` [Compound 164a, 2-{[4-({2-[(2,4-dichlorophenyl)methyl]pyrimidin-4-yl}oxy)piperidin-1-yl]methyl}-3-{[(2S)-oxetan-2-yl]methyl}-3H-imidazo[4,5-b]pyridine-5-carboxylic acid], for which the EC50 reads like this: under setting [1], 0.11 nM; under setting [2], 0.1 nM. As to `O=C(O)c1ccc2nc(CN3CCC(Oc4ccnc(Cc5ccc(Cl)cc5C(F)(F)F)n4)CC3)n(C[C@@H]3CCO3)c2n1` [Compound 166a, 2-({4-[(2-{[4-chloro-2-(trifluoromethyl)phenyl]methyl}pyrimidin-4-yl)oxy]piperidin-1-yl}methyl)-3-{[(2S)-oxetan-2-yl]methyl}-3H-imidazo[4,5-b]pyridine-5-carboxylic acid], under setting [1], the EC50 was determined as 1 nM.

`O=C(O)c1ccc2nc(CN3CCC(Oc4ccnc(Cc5ccc(Cl)c(Cl)c5)n4)CC3)n(C[C@@H]3CCO3)c2n1` [Compound 167a, 2-{[4-({2-[(3,4-dichlorophenyl)methyl]pyrimidin-4-yl}oxy)piperidin-1-yl]methyl}-3-{[(2S)-oxetan-2-yl]methyl}-3H-imidazo[4,5-b]pyridine-5-carboxylic acid]: the EC50 under setting [1] is 0.13 nM. On the same count and under the same terms, the same measure for `O=C(O)c1ccc2nc(CN3CCC(Oc4ccnc(Cc5ccc(Cl)cc5F)n4)C(F)(F)C3)n(C[C@@H]3CCO3)c2n1` (stereo partly drawn) [Compound 168a, 2-{[4-({2-[(4-chloro-2-fluorophenyl)methyl]pyrimidin-4-yl}oxy)-3,3-difluoropiperidin-1-yl]methyl}-3-{[(2S)-oxetan-2-yl]methyl}-3H-imidazo[4,5-b]pyridine-5-carboxylic acid]: 1.2 nM. On the same count and under the same terms, the same measure for `O=C(O)c1ccc2nc(CN3CCC(C(F)(F)c4cccc(Cc5ccc(Cl)cc5F)n4)CC3)n(C[C@@H]3CCO3)c2n1` [Compound 173a, 2-{[4-({6-[(4-chloro-2-fluorophenyl)methyl]pyridin-2-yl}difluoromethyl)piperidin-1-yl]methyl}-3-{[(2S)-oxetan-2-yl]methyl}-3H-imidazo[4,5-b]pyridine-5-carboxylic acid]: 3.8 nM; for `O=C(O)c1ccc2nc(C[C@H]3CC[C@@H](Oc4cccc(Cc5ccc(Cl)cc5F)n4)CC3)n(C[C@@H]3CCO3)c2n1` [Compound 174a, 3-{[(2S)-oxetan-2-yl]methyl}-2-{[cis-4-({6-[(4-chloro-2-fluorophenyl)methyl]pyridin-2-yl}oxy)cyclohexyl]methyl}-3H-imidazo[4,5-b]pyridine-5-carboxylic acid]: 29 nM; for `O=C(O)c1ccc2nc(C[C@H]3CC[C@H](Oc4cccc(Cc5ccc(Cl)cc5F)n4)CC3)n(C[C@@H]3CCO3)c2n1` [Compound 174b, 3-{[(2S)-oxetan-2-yl]methyl}-2-{[trans-4-({6-[(4-chloro-2-fluorophenyl)methyl]pyridin-2-yl}oxy)cyclohexyl]methyl}-3H-imidazo[4,5-b]pyridine-5-carboxylic acid]: 0.14 nM. Take `O=C(O)c1ccc2nc(C[C@H]3CC[C@@H](Oc4ccnc(Cc5ccc(Cl)cc5F)n4)CC3)n(C[C@@H]3CCO3)c2n1` [Compound 175a, 3-{[(2S)-oxetan-2-yl]methyl}-2-{[cis-4-({2-[(4-chloro-2-fluorophenyl)methyl]pyrimidin-4-yl}oxy)cyclohexyl]methyl}-3H-imidazo[4,5-b]pyridine-5-carboxylic acid]: under setting [1], the EC50 is 230 nM.

Turning to `O=C(O)c1ccc2nc(C[C@H]3CC[C@H](Oc4ccnc(Cc5ccc(Cl)cc5F)n4)CC3)n(C[C@@H]3CCO3)c2n1` [Compound 175b, 3-{[(2S)-oxetan-2-yl]methyl}-2-{[trans-4-({2-[(4-chloro-2-fluorophenyl)methyl]pyrimidin-4-yl}oxy)cyclohexyl]methyl}-3H-imidazo[4,5-b]pyridine-5-carboxylic acid], the EC50 under setting [1] was 0.063 nM. On the same count and under the same terms, for `O=C(O)c1ccc2nc(C[C@H]3CC[C@H](Oc4ccnc(Cc5ccc(Cl)cc5)n4)CC3)n(C[C@@H]3CCO3)c2c1` [Compound 176a, 1-{[(2S)-oxetan-2-yl]methyl)-2-{[trans-4-({2-[(4-chlorophenyl)methyl]pyrimidin-4-yl}oxy)cyclohexyl]methyl}-1H-1,3-benzodiazole-6-carboxylic acid] the value was 0.37 nM. The same measure, in the same setting: the same measure for `O=C(O)c1ccc2nc(C[C@H]3CC[C@H](Oc4ccnc(Cc5ccc(Cl)cc5)n4)CC3)n(C[C@@H]3CCO3)c2n1` [Compound 177a, 3-{[(2S)-oxetan-2-yl]methyl}-2-{[trans-4-({2-[(4-chlorophenyl)methyl]pyrimidin-4-yl}oxy)cyclohexyl]methyl}-3H-imidazo[4,5-b]pyridine-5-carboxylic acid]: 0.042 nM; for `N#CC1(Cn2c(C[C@H]3CC[C@H](Oc4ccnc(Cc5ccc(Cl)cc5)n4)CC3)nc3ccc(C(=O)O)nc32)CC1` [Compound 178a, 3-[(1-cyanocyclopropyl)methyl]-2-{[trans-4-({2-[(4-chlorophenyl)methyl]pyrimidin-4-yl}oxy)cyclohexyl]methyl}-3H-imidazo[4,5-b]pyridine-5-carboxylic acid]: 0.1 nM. Same read-out and setting: for `COCCn1c(C[C@H]2CC[C@H](Oc3ccnc(Cc4ccc(Cl)cc4)n3)CC2)nc2ccc(C(=O)O)nc21` [Compound 179a, 3-(2-methoxyethyl)-2-{[trans-4-({2-[(4-chlorophenyl)methyl]pyrimidin-4-yl}oxy)cyclohexyl]methyl}-3H-imidazo[4,5-b]pyridine-5-carboxylic acid] the value was 2.8 nM. With `Cn1c(C[C@H]2CC[C@H](Oc3ccnc(Cc4ccc(Cl)cc4)n3)CC2)nc2ccc(C(=O)O)nc21` [Compound 180a, 3-methyl-2-{[trans-4-({2-[(4-chlorophenyl)methyl]pyrimidin-4-yl}oxy)cyclohexyl]methyl}-3H-imidazo[4,5-b]pyridine-5-carboxylic acid], the EC50 under setting [1] stood at 2.3 nM.

For `O=C(O)c1ccc2nc(C[C@H]3CC[C@H](Oc4cccc(Cc5ccc(Cl)cc5)n4)CC3)n(C[C@@H]3CCO3)c2n1` [Compound 181a, 3-{[(2S)-oxetan-2-yl]methyl}-2-{[trans-4-({6-[(4-chlorophenyl)methyl]pyridin-2-yl}oxy)cyclohexyl]methyl}-3H-imidazo[4,5-b]pyridine-5-carboxylic acid], under setting [1], the EC50 was 0.083 nM. As to `N#Cc1ccc(Cc2nccc(O[C@H]3CC[C@H](Cc4nc5ccc(C(=O)O)nc5n4C[C@@H]4CCO4)CC3)n2)cc1` [Compound 182a, 3-{[(2S)-oxetan-2-yl]methyl}-2-{[trans-4-({2-[(4-cyanophenyl)methyl]pyrimidin-4-yl}oxy)cyclohexyl]methyl}-3H-imidazo[4,5-b]pyridine-5-carboxylic acid], the EC50 under setting [1] stood at 0.07 nM.
